Tests used:
Assay type in all cases: in vivo
[1] = tested on: Avena fatua (AVEFA); assay: Glasshouse herbicidal test, pre- and post-emergence, Avena fatua; settings: 250 g/h, evaluated after 13 days, five point scale; for percentage damage caused to the plant, AVEFA POST: post-emergence; for percentage damage caused to the plant, AVEFA PRE: pre-emergence
Protocol: (§1) Seeds of a variety of test species are sown in standard soil in pots (Lolium perenne (LOLPE), Setaria faberi (SETFA), Alopecurus myosuroides (ALOMY), Echinochloa crus-galli (ECHCG), Avena fatua (AVEFA)). After cultivation for one day (pre-emergence) or after 8 days cultivation (post-emergence) under controlled conditions in a glasshouse (at 24/16° C., day/night; 14 hours light; 65% humidity), the plants are sprayed with an aqueous spray solution derived from the formulation of the technical active ingredient in acetone/water (50:50) solution containing 0.5% Tween 20 (polyoxyethelyene sorbitan monolaurate, CAS RN 9005-64-5). Compounds are applied at […]. The test plants are then grown in a glasshouse under controlled conditions in a glasshouse (at 24/16° C., day/night; 14 hours light; 65% humidity) and watered twice daily. After 13 days for pre and post-emergence, the test is evaluated for the percentage damage caused to the plant. The biological activities are shown in the following table on a five point scale (5=80-100%; 4=60-79%; 3=40-59%; 2=20-39%; 1=0-19%).

[2] = tested on: Setaria faberi (SETFA); assay: Glasshouse herbicidal test, pre- and post-emergence, Setaria faberi; settings: 250 g/h, evaluated after 13 days, five point scale; for percentage damage caused to the plant, SETFA POST: post-emergence; for percentage damage caused to the plant, SETFA PRE: pre-emergence
Protocol: as §1

[3] = tested on: Alopecurus myosuroides (ALOMY); assay: Glasshouse herbicidal test, pre- and post-emergence, Alopecurus myosuroides; settings: 250 g/h, evaluated after 13 days, five point scale; for percentage damage caused to the plant, ALOMY POST: post-emergence; for percentage damage caused to the plant, ALOMY PRE: pre-emergence
Protocol: as §1

[4] = tested on: Lolium perenne (LOLPE); assay: Glasshouse herbicidal test, pre- and post-emergence, Lolium perenne; settings: 250 g/h, evaluated after 13 days, five point scale; for percentage damage caused to the plant, LOLPE POST: post-emergence; for percentage damage caused to the plant, LOLPE PRE: pre-emergence
Protocol: as §1

[5] = tested on: Echinochloa crus-galli (ECHCG); assay: Glasshouse herbicidal test, pre- and post-emergence, Echinochloa crus-galli; settings: 250 g/h, evaluated after 13 days, five point scale; for percentage damage caused to the plant, ECHCG POST: post-emergence; for percentage damage caused to the plant, ECHCG PRE: pre-emergence
Protocol: as §1

CC#Cc1cc(C)c(C2=C(OC(=O)C(C)(C)C)CC3(CCN(OC)CC3)CC2=O)c(C)c1 [Compound P1]
5 (5=80-100%): percentage damage caused to the plant, AVEFA POST [1] | percentage damage caused to the plant, AVEFA PRE [1] | percentage damage caused to the plant, SETFA POST [2] | percentage damage caused to the plant, SETFA PRE [2] | percentage damage caused to the plant, ALOMY POST [3] | percentage damage caused to the plant, ALOMY PRE [3] | percentage damage caused to the plant, LOLPE POST [4] | percentage damage caused to the plant, LOLPE PRE [4] | percentage damage caused to the plant, ECHCG POST [5] | percentage damage caused to the plant, ECHCG PRE [5]

CC#Cc1cc(C)c(C2=C(OC(C)=O)CC3(CCN(OC)CC3)CC2=O)c(C)c1 [Compound P2]
5 (5=80-100%): percentage damage caused to the plant, AVEFA POST [1] | percentage damage caused to the plant, AVEFA PRE [1] | percentage damage caused to the plant, SETFA POST [2] | percentage damage caused to the plant, SETFA PRE [2] | percentage damage caused to the plant, ALOMY POST [3] | percentage damage caused to the plant, ALOMY PRE [3] | percentage damage caused to the plant, LOLPE POST [4] | percentage damage caused to the plant, LOLPE PRE [4] | percentage damage caused to the plant, ECHCG POST [5] | percentage damage caused to the plant, ECHCG PRE [5]

CC#Cc1cc(C)c(C2=C(OC(=O)OC)CC3(CCN(OC)CC3)CC2=O)c(C)c1 [Compound P3]
5 (5=80-100%): percentage damage caused to the plant, AVEFA POST [1] | percentage damage caused to the plant, AVEFA PRE [1] | percentage damage caused to the plant, SETFA POST [2] | percentage damage caused to the plant, SETFA PRE [2] | percentage damage caused to the plant, ALOMY POST [3] | percentage damage caused to the plant, ALOMY PRE [3] | percentage damage caused to the plant, LOLPE POST [4] | percentage damage caused to the plant, LOLPE PRE [4] | percentage damage caused to the plant, ECHCG POST [5] | percentage damage caused to the plant, ECHCG PRE [5]

CC#Cc1cc(C)c(C2=C(OC(C)=O)CC3(CCN(C(C)=O)CC3)CC2=O)c(C)c1 [Compound P4, [3-acetyl-9-(2,6-dimethyl-4-prop-1-ynyl-phenyl)-10-oxo-3-azaspiro[5.5]undec-8-en-8-yl] acetate]
5 (5=80-100%): percentage damage caused to the plant, AVEFA POST [1] | percentage damage caused to the plant, AVEFA PRE [1] | percentage damage caused to the plant, SETFA PRE [2] | percentage damage caused to the plant, ALOMY POST [3] | percentage damage caused to the plant, ALOMY PRE [3] | percentage damage caused to the plant, LOLPE POST [4] | percentage damage caused to the plant, LOLPE PRE [4] | percentage damage caused to the plant, ECHCG POST [5] | percentage damage caused to the plant, ECHCG PRE [5]

CC#Cc1cc(C)c(C2=C(OC(=O)OC)CC3(CCN(C(C)=O)CC3)CC2=O)c(C)c1 [Compound P5]
5 (5=80-100%): percentage damage caused to the plant, AVEFA POST [1] | percentage damage caused to the plant, AVEFA PRE [1] | percentage damage caused to the plant, SETFA POST [2] | percentage damage caused to the plant, SETFA PRE [2] | percentage damage caused to the plant, ALOMY POST [3] | percentage damage caused to the plant, ALOMY PRE [3] | percentage damage caused to the plant, LOLPE POST [4] | percentage damage caused to the plant, LOLPE PRE [4] | percentage damage caused to the plant, ECHCG POST [5] | percentage damage caused to the plant, ECHCG PRE [5]

CC#Cc1cc(C)c(C2=C(OC(=O)C(C)C)CC3(CCN(C(=O)C(C)C)CC3)CC2=O)c(C)c1 [Compound P7]
5 (5=80-100%): percentage damage caused to the plant, AVEFA POST [1] | percentage damage caused to the plant, AVEFA PRE [1] | percentage damage caused to the plant, SETFA POST [2] | percentage damage caused to the plant, SETFA PRE [2] | percentage damage caused to the plant, ALOMY POST [3] | percentage damage caused to the plant, ALOMY PRE [3] | percentage damage caused to the plant, LOLPE POST [4] | percentage damage caused to the plant, LOLPE PRE [4] | percentage damage caused to the plant, ECHCG POST [5] | percentage damage caused to the plant, ECHCG PRE [5]

CC#Cc1cc(C)c(C2=C(OC(=O)Oc3ccccc3)CC3(CCN(C(C)=O)CC3)CC2=O)c(C)c1 [Compound P9]
5 (5=80-100%): percentage damage caused to the plant, AVEFA POST [1] | percentage damage caused to the plant, AVEFA PRE [1] | percentage damage caused to the plant, SETFA POST [2] | percentage damage caused to the plant, SETFA PRE [2] | percentage damage caused to the plant, ALOMY POST [3] | percentage damage caused to the plant, ALOMY PRE [3] | percentage damage caused to the plant, LOLPE POST [4] | percentage damage caused to the plant, LOLPE PRE [4] | percentage damage caused to the plant, ECHCG PRE [5]

— patent US11542235B2, “Herbicidal 3-azaspiro[5.5] undecane-8, 10-dione compounds” (SYNGENTA PARTICIPATIONS AG, priority 2018, dated 2023)
